Results published in PubChem BioAssay AID2060338 (Molecular Pharmacology Branch, DTP, NCI, 2025).
Values joined by “and” are separate entries in the source; they are usually repeats but may differ in a detail not shown here. Equal values may be shown once.

System: 556581-035-R-J1-PDC spheroids with HUVEC/MSC, viability
Test: Anticancer human tumor 556581-035-R-J1-PDC patient-derived ovarian carcinoma cell line growth inhibition [IpAb]
Conditions: for viability, T/C: stronger effect = lower value
Source text: Combinatorial screen of targeted agents with ipatasertib and abemaciclib in multi-cell type tumor spheroids
A high-throughput screen of multi-cell type tumor spheroids was designed to identify active combinations of targeted small molecules and ipatasertib or abemaciclib. Complex spheroids include a stromal component modeled by human endothelial cells (HUVEC) and fibroblasts modeled by human mesenchymal stem cells (MSCs). The concentration ranges selected for each drug and investigational agent were based upon clinically achievable concentrations if the clinical Cmax of the agent was known.
Compounds. The drugs and investigational agents: ipatasertib (NSC767898), abemaciclib(NSC768073), selumetinib (NSC741078), trametinib (758246), adavosertib (NSC754352), everolimus (NSC733504), sapanisertib (NSC764658), vemurafenib (NSC761431), venetoclax (NSC766270), copanlisib (NSC809693), apelisib (NSC765974), palbociblib (NSC758247), vemurafenib (NSC761431), dabrafenib (NSC764134), ravoxertinib (NSC781343), BMS-387032 (NSC767048), sotorasib (NSC818433), talazoparib (NSC767125) and afursertib (NSC778305), were obtained from the National Cancer Institute (NCI) Developmental Therapeutics Program Chemical Repository. The FDA-approved anticancer drug set is available from the NCI Developmental Therapeutics Program. […] The stock solutions were prepared in dimethyl sulfoxide (DMSO, Sigma-Aldrich, St. Louis, MO, cat. D2650) at 800-fold the tested concentration and stored at -70 degrees C prior to their use. All drugs and investigational agents were tested over a range starting from a high concentration at or near the clinical Cmax and decreasing in half-log increments. If the clinical Cmax for an agent had not been determined, the highest concentration tested was 10 microM.
NCI60 Cell Culture. NCI60 cell lines were obtained from the NCI Developmental Therapeutics Program Tumor Repository. For each lot of cells, the Repository performed Applied Biosystems AmpFLSTR Identifiler testing with PCR amplification to confirm consistency with the published Identifier STR profile for each cell line. Cells were kept in continuous culture for no more than 20 passages. The optimal seeding densities for each of the cell lines at each time point assessed were determined prior to performing the concentration response studies. Briefly, the NCI60 human tumor lines were grown as monolayers in RPMI 1640 medium supplemented with 10% FBS and 2 mmol/L L-glutamine.
An additional 9 lines were from the NCI60 cell line panel including MDA-MB-231 breast carcinoma, MDA-MB-468 breast carcinoma, MCF7 breast carcinoma, Hs578T breast carcinoma, MALME-3M melanoma, SK-MEL-2 melanoma, SK-OV-3 ovarian carcinoma, DU-145 prostate carcinoma, PC-3 prostate carcinoma, all cell lines along with major genetic alterations are listed on Table 2. Pooled donor human umbilical vein endothelial cells (HUVEC, Lonza, cat. CC-2519) and human mesenchymal stem cells (hMSC, Lonza, cat. PT-2501) were purchased from Lonza (Walkersville, MD).
PDMR cell lines were grown in complete medium (DC medium): Dulbecco's modified Eagle's medium (DMEM)/F12 supplemented with 5% fetal bovine serum (FBS), 2 mM L-glutamine, 100 U/mL penicillin and 100 µg/ml streptomycin, 0.4 µg/ml hydrocortisone, 10 ng/ml epidermal growth factor (EGF) recombinant human protein, 24 µg/mL adenine, and 0.1 mg/mL primocin. During culture from frozen stock vials, PDMR cells were cultured in the same medium containing 10 µM Y-27632 (see Table 3). The PDCs were cultured in complete DMEM/F12 media without 10 microM Y-27632 dihydrochloride for at least two passages prior to the screen. The pooled donor HUVEC and hMSC were cultured in endothelial cell growth medium 2 (PromoCell, Heidelberg, Germany, cat. C-22011) and mesenchymal stem cell growth medium 2 (PromoCell, cat. C-28009), respectively. For all experiments, HUVEC and hMSC were used at passages </=5.
[…]

[1] = curve of first compound, second compound 0.1 µM
[2] = curve of first compound, second compound 0.316 µM
[3] = curve of first compound, second compound 1 µM
[4] = curve of first compound, second compound 3.16 µM
[5] = curve of first compound, second compound 10 µM
[6] = second compound 0.1 µM, first compound 0.00949 µM
[7] = second compound 0.1 µM, first compound 0.03 µM
[8] = second compound 0.1 µM, first compound 0.0949 µM
[9] = second compound 0.1 µM, first compound 0.3 µM
[10] = second compound 0.1 µM, first compound 0.949 µM
[11] = second compound 0.1 µM, first compound 3 µM
[12] = second compound 0.316 µM, first compound 0.00949 µM
[13] = second compound 0.316 µM, first compound 0.03 µM
[14] = second compound 0.316 µM, first compound 0.0949 µM
[15] = second compound 0.316 µM, first compound 0.3 µM
[16] = second compound 0.316 µM, first compound 0.949 µM
[17] = second compound 0.316 µM, first compound 3 µM
[18] = second compound 1 µM, first compound 0.00949 µM
[19] = second compound 1 µM, first compound 0.03 µM
[20] = second compound 1 µM, first compound 0.0949 µM
[21] = second compound 1 µM, first compound 0.3 µM
[22] = second compound 1 µM, first compound 0.949 µM
[23] = second compound 1 µM, first compound 3 µM
[24] = second compound 3.16 µM, first compound 0.00949 µM
[25] = second compound 3.16 µM, first compound 0.03 µM
[26] = second compound 3.16 µM, first compound 0.0949 µM
[27] = second compound 3.16 µM, first compound 0.3 µM
[28] = second compound 3.16 µM, first compound 0.949 µM
[29] = second compound 3.16 µM, first compound 3 µM
[30] = second compound 10 µM, first compound 0.00949 µM
[31] = second compound 10 µM, first compound 0.03 µM
[32] = second compound 10 µM, first compound 0.0949 µM
[33] = second compound 10 µM, first compound 0.3 µM
[34] = second compound 10 µM, first compound 0.949 µM
[35] = second compound 10 µM, first compound 3 µM
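Further: spheroids exposed to compounds for 7 days before readout.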

SMILES: C=CCn1c(=O)c2cnc(Nc3ccc(N4CCN(C)CC4)cc3)nc2n1-c1cccc(C(C)(C)O)n1 + CCN1CCN(Cc2ccc(Nc3ncc(F)c(-c4cc(F)c5nc(C)n(C(C)C)c5c4)n3)nc2)CC1
- IC50 (curve of first compound, second compound 0.01 µM): 0.233 µM
- IC50 (curve of first compound, second compound 0.0316 µM): 0.225 µM
- IC50 [1]: 0.211 µM
- IC50 [2]: 0.177 µM
- IC50 [3]: 0.0368 µM
- viability, T/C (second compound 0.01 µM, first compound 0.0316 µM): 96.9%
- viability, T/C (second compound 0.01 µM, first compound 0.1 µM): 81.9%
- viability, T/C (second compound 0.01 µM, first compound 0.316 µM): 32.1%
- viability, T/C (second compound 0.01 µM, first compound 1 µM): 35.9%
- viability, T/C (second compound 0.01 µM, first compound 3.16 µM): 42%
- viability, T/C (second compound 0.01 µM, first compound 10 µM): 44.4%
- viability, T/C (second compound 0.0316 µM, first compound 0.0316 µM): 102%
- viability, T/C (second compound 0.0316 µM, first compound 0.1 µM): 78.4%
- viability, T/C (second compound 0.0316 µM, first compound 0.316 µM): 27.8%
- viability, T/C (second compound 0.0316 µM, first compound 1 µM): 37.2%
- viability, T/C (second compound 0.0316 µM, first compound 3.16 µM): 51.3%
- viability, T/C (second compound 0.0316 µM, first compound 10 µM): 36.3%
- viability, T/C (second compound 0.1 µM, first compound 0.0316 µM): 83.3%
- viability, T/C (second compound 0.1 µM, first compound 0.1 µM): 66.3%
- viability, T/C (second compound 0.1 µM, first compound 0.316 µM): 31.8%
- viability, T/C (second compound 0.1 µM, first compound 1 µM): 40.9%
- viability, T/C (second compound 0.1 µM, first compound 3.16 µM): 50.6%
- viability, T/C (second compound 0.1 µM, first compound 10 µM): 41.4%
- viability, T/C (second compound 0.316 µM, first compound 0.0316 µM): 91.4%
- viability, T/C (second compound 0.316 µM, first compound 0.1 µM): 60.7%
- viability, T/C (second compound 0.316 µM, first compound 0.316 µM): 29.2%
- viability, T/C (second compound 0.316 µM, first compound 1 µM): 38.1%
- viability, T/C (second compound 0.316 µM, first compound 3.16 µM): 48.1%
- viability, T/C (second compound 0.316 µM, first compound 10 µM): 40.7%
- viability, T/C (second compound 1 µM, first compound 0.0316 µM): 54.5%
- viability, T/C (second compound 1 µM, first compound 0.1 µM): 41.1%
- viability, T/C (second compound 1 µM, first compound 0.316 µM): 32.9%
- viability, T/C (second compound 1 µM, first compound 1 µM): 31.5%
- viability, T/C (second compound 1 µM, first compound 3.16 µM): 42.5%
- viability, T/C (second compound 1 µM, first compound 10 µM): 13.9%

SMILES: CC(C)(C)c1cnc(CSc2cnc(NC(=O)C3CCNCC3)s2)o1 + CC(C)NCC(C(=O)N1CCN(c2ncnc3c2C(C)CC3O)CC1)c1ccc(Cl)cc1
- IC50 [1]: 0.107 µM
- IC50 [2]: 0.137 µM
- IC50 [3]: 0.0552 µM
- IC50 [4]: 0.0429 µM
- IC50 [5]: < 0.00949 µM
- viability, T/C [6]: 86.1%
- viability, T/C [7]: 116%
- viability, T/C [8]: 55.3%
- viability, T/C [9]: 3.48%
- viability, T/C [10]: 3.84%
- viability, T/C [11]: 2.08%
- viability, T/C [12]: 81.1%
- viability, T/C [13]: 89.9%
- viability, T/C [14]: 71.9%
- viability, T/C [15]: 3.02%
- viability, T/C [16]: 2.73%
- viability, T/C [17]: 3.48%
- viability, T/C [18]: 64.6%
- viability, T/C [19]: 65.4%
- viability, T/C [20]: 36.7%
- viability, T/C [21]: 2.25%
- viability, T/C [22]: 2.57%
- viability, T/C [23]: 3.16%
- viability, T/C [24]: 56.4%
- viability, T/C [25]: 55.7%
- viability, T/C [26]: 36.6%
- viability, T/C [27]: 2.16%
- viability, T/C [28]: 3.96%
- viability, T/C [29]: 2.31%
- viability, T/C [30]: 46.1%
- viability, T/C [31]: 44.2%
- viability, T/C [32]: 11.5%
- viability, T/C [33]: 2.21%
- viability, T/C [34]: 1.45%
- viability, T/C [35]: 1.36%

SMILES: Cn1ncc(Cl)c1-c1cc(C(=O)NC(CN)Cc2cccc(F)c2)sc1Cl (centres undefined)
- viability, T/C (compound 0.0316 µM): 90.6% and 96.9%
- viability, T/C (compound 0.1 µM): 81% and 74.5%
- viability, T/C (compound 0.316 µM): 71.5% and 69.2%
- viability, T/C (compound 1 µM): 60.2% and 70.8%
- viability, T/C (compound 3.16 µM): 52.5% and 47.6%
- viability, T/C (compound 10 µM): 0.3% and 0.29%
- IC50 (curve of compound): 2.32 µM and 2.41 µM

SMILES: Cn1cnc2c(F)c(Nc3ccc(Br)cc3Cl)c(C(=O)NOCCO)cc21 + CC(C)NCC(C(=O)N1CCN(c2ncnc3c2C(C)CC3O)CC1)c1ccc(Cl)cc1
- IC50 [1]: 0.473 µM
- IC50 [2]: 0.218 µM
- IC50 [3]: 0.0553 µM
- IC50 [4]: < 0.00949 µM
- IC50 [5]: < 0.00949 µM
- viability, T/C [6]: 91.4%
- viability, T/C [7]: 89.3%
- viability, T/C [8]: 81.6%
- viability, T/C [9]: 55.5%
- viability, T/C [10]: 38.1%
- viability, T/C [11]: 14.7%
- viability, T/C [12]: 69.1%
- viability, T/C [13]: 60.5%
- viability, T/C [14]: 61%
- viability, T/C [15]: 46.4%
- viability, T/C [16]: 28.6%
- viability, T/C [17]: 14.2%
- viability, T/C [18]: 59.7%
- viability, T/C [19]: 55.6%
- viability, T/C [20]: 46.1%
- viability, T/C [21]: 31.7%
- viability, T/C [22]: 20.4%
- viability, T/C [23]: 7.02%
- viability, T/C [24]: 45.9%
- viability, T/C [25]: 40.7%
- viability, T/C [26]: 33.9%
- viability, T/C [27]: 25%
- viability, T/C [28]: 15.4%
- viability, T/C [29]: 6.95%
- viability, T/C [30]: 37.3%
- viability, T/C [31]: 38.6%
- viability, T/C [32]: 29.6%
- viability, T/C [33]: 21.2%
- viability, T/C [34]: 13.8%
- viability, T/C [35]: 3.58%

SMILES: CC1(C)CCC(CN2CCN(c3ccc(C(=O)NS(=O)(=O)c4ccc(NCC5CCOCC5)c([N+](=O)[O-])c4)c(Oc4cnc5[nH]ccc5c4)c3)CC2)=C(c2ccc(Cl)cc2)C1
- viability, T/C (compound 0.0316 µM): 105% and 99.1%
- viability, T/C (compound 0.1 µM): 103% and 102%
- viability, T/C (compound 0.316 µM): 95.2% and 99%
- viability, T/C (compound 1 µM): 94% and 108%
- viability, T/C (compound 3.16 µM): 105% and 97.4%
- viability, T/C (compound 10 µM): 27.4% and 15.8%
- IC50 (curve of compound): 6.99 µM and 6.18 µM
